# Residues, ends and D or L forms follow the SMILES beside them. *: point of attachment. Heptanoyl = CCCCCCC(=O)*; Hexanoyl = CCCCCC(=O)*; Pentanoyl = CCCCC(=O)*
# Assays:
# [1] = test system: E. coli (K-12 MG1655); type: cell-based; conditions: Table 6; K-12 MG1655; checkerboard assay, 50:50 PBS/LB-broth, 200 µL
# [2] = test system: S. aureus (ATCC 29213); type: cell-based; conditions: Table 6; ATCC 29213; checkerboard assay, 50:50 PBS/LB-broth, 200 µL
# Protocol: The broth microdilution method was used to determine minimal inhibitory concentration (MIC) and minimal bactericidal concentration (MBC), in accordance with the EUCAST standards for the broth microdilution method. […] In brief, two-fold serial dilutions of the lipopeptides were performed in a 96-well plate in PBS, with a final volume of 100 µl per well, after which 100 µl of LB-broth media containing approximately 5 × 10^5 CFU/ml of bacteria was added to each well. The plate was then incubated for 20 h in 37 °C on a shaker (400 rpm). The effect of lipopeptide-antibiotic combinations was investigated by performing checkerboard assays. The assays were performed in accordance with the MIC and MBC tests conducted above, but with horizontal and longitudinal two-fold serial dilutions of the tested compounds. […] The fractional inhibitory concentration (FIC) and fractional bactericidal concentration (FBC) were calculated by the equation (MIC or MBC of peptide in combination/MIC or MBC of peptide alone) + (MIC or MBC of antibiotic in combination/MIC or MBC of antibiotic alone). […] All experiments were repeated at least three times.
# [3] = test system: A. baumannii; conditions: 20 h
# Protocol: (§1) S. aureus (ATCC 29213, MSSA, ATCC, Manassas, VA), E. coli (K-12 MG1655) and clinical isolates of S. aureus, E. coli, E. faecium, K. pneumoniae, A. baumannii, P. aeruginosa and E. cloacae obtained from the Department of Laboratory Medicine at Örebro University Hospital were streaked on Luria–Bertani (LB) agar plates and incubated at 37 °C overnight. Single colonies were inoculated into 5 ml of LB broth and incubated on a shaker (400 rpm) at 37 °C overnight. The bacterial concentrations were determined by viable count and were adjusted to correlate with approximately 10^9 CFU/ml.
# (§2) The broth microdilution method was used to determine minimal inhibitory concentration (MIC) and minimal bactericidal concentration (MBC), in accordance with the EUCAST standards for the broth microdilution method. Two-fold serial dilutions of the lipopeptides were used, and the final concentrations ranged from 0.19 to 100 µM. In brief, two-fold serial dilutions of the lipopeptides were performed in a 96-well plate in PBS, with a final volume of 100 µl per well, after which 100 µl of LB-broth media containing approximately 5 × 10^5 CFU/ml of bacteria was added to each well. The plate was then incubated for 20 h in 37 °C on a shaker (400 rpm). The effect of lipopeptide-antibiotic combinations was investigated by performing checkerboard assays. The assays were performed in accordance with the MIC and MBC tests conducted above, but with horizontal and longitudinal two-fold serial dilutions of the tested compounds. […] The fractional inhibitory concentration (FIC) and fractional bactericidal concentration (FBC) were calculated by the equation (MIC or MBC of peptide in combination/MIC or MBC of peptide alone) + (MIC or MBC of antibiotic in combination/MIC or MBC of antibiotic alone). Synergy was defined as FIC/FBC ≤ 0.5, additive when 0.5 < FIC/FBC ≤ 1, indifferent when 1 < FIC/FBC < 2 and antagonistic when FIC/FBC ≥ 2. All experiments were repeated at least three times.
# [4] = test system: E. cloacae; conditions: 20 h
# Protocol: as §1, §2
# [5] = test system: E. coli (K-12 MG1655); conditions: Table 3; K-12 MG1655; broth microdilution, 50:50 PBS/LB-broth, 200 µL, 20 h, 37 °C
# Protocol: as §1, §2
# [6] = test system: E. faecium; conditions: 20 h
# Protocol: as §1, §2
# [7] = test system: K. pneumoniae; conditions: 20 h
# Protocol: as §1, §2
# [8] = test system: P. aeruginosa; conditions: 20 h
# Protocol: as §1, §2
# [9] = test system: S. aureus (ATCC 29213, MSSA); conditions: ATCC 29213, 20 h
# Protocol: as §1, §2
# [10] = test system: human erythrocytes; assay: Hemolytic activity; type: cell-based; conditions: 15% suspension in PBS, 1 h, 37 °C, absorbance 540 nm, highest tested concentration 100 µM
# Protocol: The hemolytic activity of the lipopeptides was investigated by collecting blood from healthy volunteers in heparinized vacutainers. Briefly, the blood was centrifuged at 600 × g for 5 min and the erythrocyte pellet was washed three times in PBS. The cells were then suspended in PBS and added to 96-well plates (15% erythrocyte suspension/well), containing the lipopeptides with two-fold serial dilution. The plates were incubated for 1 h at 37 °C followed by centrifugation for 5 min at 900×g and absorbance measurement of the supernatants at 540 nm. Hemolytic activity (%) was calculated by subtracting the negative control from all values and normalization against the positive control (0.5% Triton X-100), that was set to 100%. All experiments, each in duplicate, were repeated three times.
# [11] = Carboxyfluorescein release assay, bacterial liposome model; type: biochemical; conditions: 75:25 POPC:POPG liposomes, 25 µM lipid, 10 mM PBS pH 7.4, 10^–5–10^2 µM peptide, 60 min, fluorescence, Hill fit, n = 3; read-out: EC50 Bacterial (concentration that triggers 50% CF release)
# Protocol: (§3) Liposomes were prepared by thin-film hydration method. Lipids stock solutions (10 mg/ml in chloroform, Avanti Polar Lipids, Inc., Alabaster, United States) of the lipids 1-palmitoyl-2-oleoyl-sn-glycero-3-phosphocholine (POPC), 1-palmitoyl-2-oleoyl-sn-glycero-3-phospho-L-serine (POPS), 1-Hexadecanoyl-2-(9Z-Octadecenoyl)-sn-Glycero-3-Phosphoglycerol (POPG) and Cholesterol (Chol) were employed. Bacterial liposomes were prepared with a 75:25 ratio of POPC:POPG and mammalian liposomes were prepared with a 65:5:30 ratio of POPC:POPS:Chol. Lipid solutions were thoroughly homogenised, and the solvent was evaporated with the use of a dry N2 steam to yield a lipid cake. […] The lipid film was subsequently hydrated with a 5(6)-CF solution (50 mM CF, 10 mM PBS, 90 mM NaCl, pH 7.4). Following a 10 min incubation on orbital shaker (50 min^−1), the solution was vortexed for 60 s on medium speed. A mini extruder (Avanti Polar Lipids, Inc., United States) was employed and 21 extrusions were performed through a 0.1 µm filter membrane (Nuclepore track-etched hydrophilic membrane, Cytiva, Whatman, MA, United States), resulting in monodispersed unilamellar liposomes. Directly before use the liposomes were purified from unencapsulated CF by filtration through a gel filtration column (PD Minitrap G-25 column, Cytiva, United States), against PBS buffer (10 mM, pH 7.4).
# (§4) Peptide and lipopeptide activity towards liposome models were evaluated using a carboxyfluorescein (CF) release assay. Liposomes were diluted in PBS (10 mM, pH 7.4) to a final lipid concentration of 25 µM and incubated with peptides (10^–5–10^2 µM) in a 96-well plate (n = 3). CF release was monitored using an Infinite M1000 PRO plate reader every 2.5 min for 1 h. Full (100%) CF release was obtained by addition of 1% Triton X-100 solution followed by 10 min incubation. CF release percentage was evaluated according to the formula 100 * (F − F0)/(FT − F0), where F indicates the instantaneous fluorescence, FT the total fluorescence and F0 the background fluorescence prior to peptide addition. Data were fitted to a Hill-1 curve using MATLAB R2019a (The MathWorks Inc., Natick, Massachusetts, United States) and the half maximum effective concentration (EC50) was extracted.
# [12] = Carboxyfluorescein release assay, mammalian liposome model; type: biochemical; conditions: 65:5:30 POPC:POPS:Chol. liposomes, 25 µM lipid, 10 mM PBS pH 7.4, 10^–5–10^2 µM peptide, 60 min, fluorescence, Hill fit, n = 3; read-out: EC50 Mammalial (concentration that triggers 50% CF release)
# Protocol: as §3, §4
Compound,"E. coli MBC, antibiotic alone [1] [µg/mL]","E. coli MIC, antibiotic alone [1] [µg/mL]",E. coli MBC [5] [µM],E. coli MIC [5] [µM],S. aureus MBC [9] [µM],S. aureus MIC [9] [µM],"HC, hemolytic concentration at 5% hemolytic activity [10] [µM]",EC50 [11] [nM],EC50 [12] [nM],also measured
CO/N=C(\C(=O)N[C@@H]1C(=O)N2C(C(=O)O)=C(COC(C)=O)CS[C@H]12)c1csc(N)n1 [Cefotaxim],0.5,0.5,–,–,–,–,–,–,–,–
O=C(O)c1cn(C2CC2)c2cc(N3CCNCC3)c(F)cc2c1=O [Ciprofloxacin],0.125,0.125,–,–,–,–,–,–,–,"S. aureus MBC, antibiotic alone [2]: 0.25 µg/mL; S. aureus MIC, antibiotic alone [2]: 0.25 µg/mL"
CNC(C)C1CCC(N)C(OC2C(N)CC(N)C(OC3OCC(C)(O)C(NC)C3O)C2O)O1 (stereo not drawn) [Gentamicin],1,1,–,–,–,–,–,–,–,–
CCCCC(=O)N[C@@H](CC(C)C)C(=O)NCC(=O)N[C@@H](CC(C)C)C(=O)N[C@@H](CCCCN)C(=O)N[C@@H](CC(C)C)C(=O)N[C@@H](CC(C)C)C(=O)N[C@@H](Cc1c[nH]c2ccccc12)C(=O)N[C@@H](CO)C(=O)N[C@@H](C)C(=O)N[C@@H](Cc1ccc(O)cc1)C(=O)N[C@@H](CCCCN)C(=O)N[C@@H](Cc1c[nH]cn1)C(=O)N[C@@H](CCCNC(=N)N)C(=O)N[C@@H](CCCCN)C(=O)N[C@H](C(=O)N[C@@H](CC(C)C)C(N)=O)[C@@H](C)O [L-6-C5-Leu] (Pentanoyl-LGLKLLWSAYKHRKTL-NH2),–,–,6.2,6.2,3.1,3.1,> 100,110,3990,MBC [3]: 3.1 µM; MIC [3]: 3.1 µM; MBC [4]: > 100 µM; MIC [4]: > 100 µM; MBC [6]: 6.3 µM; MIC [6]: 3.1 µM; MBC [7]: 50 µM; MIC [7]: 25 µM; MBC [8]: 50 µM; MIC [8]: 25 µM
CCCCCC(=O)N[C@@H](CC(C)C)C(=O)NCC(=O)N[C@H](C(=O)N[C@@H](CCCCN)C(=O)N[C@H](C(=O)N[C@@H](CC(C)C)C(=O)N[C@@H](Cc1c[nH]c2ccccc12)C(=O)N[C@@H](CO)C(=O)N[C@@H](C)C(=O)N[C@@H](Cc1ccc(O)cc1)C(=O)N[C@@H](CCCCN)C(=O)N[C@@H](Cc1c[nH]cn1)C(=O)N[C@@H](CCCNC(=N)N)C(=O)N[C@@H](CCCCN)C(=O)N[C@H](C(=O)N[C@H](C(N)=O)[C@@H](C)CC)[C@@H](C)O)[C@@H](C)CC)[C@@H](C)CC [L-6-C6] (Hexanoyl-LGIKILWSAYKHRKTI-NH2),–,–,6.2,6.2,6.2,3.1,> 100,160,3570,–
CCCCCCC(=O)N[C@@H](CC(C)C)C(=O)NCC(=O)N[C@@H](CC(C)C)C(=O)N[C@@H](CCCCN)C(=O)N[C@@H](CC(C)C)C(=O)N[C@@H](CC(C)C)C(=O)N[C@@H](Cc1c[nH]c2ccccc12)C(=O)N[C@@H](CO)C(=O)N[C@@H](C)C(=O)N[C@@H](Cc1ccc(O)cc1)C(=O)N[C@@H](CCCCN)C(=O)N[C@@H](Cc1c[nH]cn1)C(=O)N[C@@H](CCCNC(=N)N)C(=O)N[C@@H](CCCCN)C(=O)N[C@H](C(=O)N[C@@H](CC(C)C)C(N)=O)[C@@H](C)O [L-6-C7-Leu] (Heptanoyl-LGLKLLWSAYKHRKTL-NH2),–,–,6.2,6.2,1.5,1.5,30,120,1100,–
CO[C@H]1/C=C/O[C@@]2(C)Oc3c(C)c(O)c4c(O)c(c(/C=N/N5CCN(C)CC5)c(O)c4c3C2=O)NC(=O)/C(C)=C\C=C\[C@H](C)[C@H](O)[C@@H](C)[C@@H](O)[C@@H](C)[C@H](OC(C)=O)[C@@H]1C [Rifampicin],100,–,–,–,–,–,–,–,–,"S. aureus MBC, antibiotic alone [2]: 0.062 µg/mL; S. aureus MIC, antibiotic alone [2]: 0.062 µg/mL"
